According to PubChem BioAssay AID743159 (Broad Institute, 2013):
Values joined by “and” are separate entries in the source; they are usually repeats but may differ in a detail not shown here. Equal entries are not always repeated. Active and inactive are the calls of the source.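 The calls were made as follows: active = fitted curve reaches a 40% rise in lysis activity at or below the top valid tested dose; inconclusive = flat curve holding a 30 to 70% rise, or poor fit; inactive = signal moving opposite to the expected rise, and the rest.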

system: not listed separately; test: Cryptococcus neoformans cell lysis inducers, dose response, AK release luminescence, dry powder (AID 743159); details: Cryptococcus neoformans lysis, adenylate kinase release luminescence, 4 h; at 15 µM (top of the series)

With `O=c1[nH]c2ccccc2n1CCOc1ccccc1` the lysis activity increase was -3.24% (inactive) and 10.6% (inactive).
In the case of `CCOC(=O)c1c(-c2ccc(F)cc2)csc1NC(=O)CN1CCN(CC)CC1`, the lysis activity increase was 20.2% (inactive).
In the case of `CCOC(=O)c1c(NC(=O)CN2CCN(C)CC2)sc(C)c1-c1ccc(C)cc1`, the lysis activity increase was -2.55% (inactive).
In the case of `CCOC(=O)c1c(-c2ccc(OC)cc2)csc1NC(=O)CN(C)CC(=O)N(C)C`, the lysis activity increase was -2.9% (inactive).
With `CCOC(=O)c1c(NC(=O)CNCCN(C)C)sc(C)c1-c1ccccc1` the lysis activity increase was 16.9% (inactive).
With `Cc1ccc(OCCn2c(SCCO)nc3ccccc32)c(C(C)C)c1` the lysis activity increase was 18.7% (inactive).

system: Cryptococcus neoformans lysis, adenylate kinase release luminescence, 4 h; test: as above; details: not given

Going from `Fc1ccccc1OCCn1c(=S)[nH]c2ccccc21` to `Cc1ccccc1OCCn1c(=S)[nH]c2ccccc21`, the AC40 falls from 1770 nM to 596 nM (3-fold).

First: COC(=O)C1=C(C)N(Cc2ccc(F)cc2)C(=S)NC1c1cccc(F)c1 (stereo not given)
Second: COC(=O)C1=C(C)N(Cc2ccc(Br)cc2)C(=S)NC1c1ccc(F)cc1 (stereo not given)
The AC40 of the first is 3.4-fold higher: 2300 nM for the first, 681 nM for the second.

`CCOC(=O)c1c(-c2ccc(C(C)(C)C)cc2)csc1NC(=O)CN1CCN(CC)CC1` and `CCOC(=O)c1c(-c2ccc(C(C)(C)C)cc2)csc1NC(=O)CN1CCN(C)CC1` are within 1.5-fold of each other in AC40: 6310 nM for the first, 6330 nM for the second.

First: S=c1[nH]c2ccccc2n1CCOc1ccccc1
Second: Cc1ccc2c(c1)[nH]c(=S)n2CCOc1ccccc1
The AC40 of the first is 7.7-fold higher: 1630 nM for the first, 211 nM for the second.

Compared with `CCOC(=O)c1c(-c2ccc(-c3ccccc3)cc2)csc1NC(=O)CNCCN(C)C`, `COC(=O)C1=C(C)N(Cc2ccccc2)C(=S)NC1c1ccc(Br)cc1` (stereo not given) is 3.7-fold lower in AC40: 6640 nM for the first, 1810 nM for the second.

Going from `COC(=O)C1=C(C)N(Cc2ccc(Br)cc2)C(=S)NC1c1ccc(OC)cc1` (stereo not given) to `COC(=O)C1=C(C)N(Cc2ccc(Cl)cc2)C(=S)NC1c1ccc(Br)cc1` (stereo not given), the AC40 falls from 925 nM to 454 nM (2-fold).

First: Cc1ccc(OCCn2cnc3ccccc32)cc1
Second: Cc1ccc(OCCn2c(C)nc3ccccc32)cc1
The AC40 of the first is 1.9-fold higher: 2860 nM for the first, 1480 nM for the second.

First: Cc1cccc(OCCn2c(=S)[nH]c3cc(C(F)(F)F)ccc32)c1
Second: Cc1ccc(OCCn2c(=S)[nH]c3ccccc32)cc1
The AC40 of the first is 2-fold lower: 352 nM for the first, 703 nM for the second.

Going from `S=c1[nH]c2cccc(Cl)c2n1CCOc1ccccc1` to `Fc1cccc2c1[nH]c(=S)n2CCOc1ccccc1`, the AC40 rises from 851 nM to 1500 nM (1.8-fold).

`Cc1ccc(C(C)C)c(OCCn2c(=S)[nH]c3ccccc32)c1` and `S=c1[nH]c2ccccc2n1CCOc1ccc(Cl)cc1` are within 1.5-fold of each other in AC40: 232 nM for the first, 270 nM for the second.

For `CCOc1ccc(OCCn2c(=S)[nH]c3ccccc32)cc1`, the AC40 was 880 nM.

For `CCOC(=O)c1c(-c2ccc(F)cc2)csc1NC(=O)CN1CCN(C)CC1`, the AC40 was > 15000 nM (inactive).
In the case of `c1ccc(OCCn2cnc3ccccc32)cc1`, the AC40 was > 15000 nM (inactive).
For `Cc1ccc(OCCn2c(=S)[nH]c3ccccc32)c(C(C)C)c1`, the AC40 was 334 nM and 155 nM.
